Results published in patent US20260201008A1, “SECRETIN-DERIVED GLP1R SELECTIVE AGONISTS” (GUBRA A/S, priority 2023, published 2026).
Numbered stars: 1 amine (or outer) side, 2 acyl side, 3 side chain; on linkers, the order of the positions; unused ones are H or OH. Square brackets hold non-standard residues; d marks the D form. Side chains are listed from the residue outwards. Peptide text beside a SMILES is read from it. * marks the point of attachment. C20 diacid = O=C(O)CCCCCCCCCCCCCCCCCCC(=O)*; γGlu = O=C(O)[C@H](CCC(=O)[*:2])N[*:1]; AEEA = NCCOCCOCC(=O)O; Aib = CC(C)(N)C(=O)O

Assays:
[1] = Turbidity of crude library peptides (absorbance at 600 nm); format: physicochemical; details: Physical stability of peptides
Summary of the method: (§1)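 Crude peptides at 267 μM in 50 mM sodium acetate pH 4.0 or 50 mM sodium phosphate pH 7.0, pre-incubated 1-2 h at room temperature, then 4 μM final ThT added. Turbidity read first as A600. ThT fluorescence (ex 450/em 480 nm) read every 10 min for 72 h at 40° C, with 5 min shaking before each read; fibril formation = average emission.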

[2] = Fibril formation of crude library peptides (Thioflavin T); format: physicochemical; parameters: key: average ThT fluorescence emission at 480 nm (ex 450 nm), raw units; details: Physical stability of peptides
Summary of the method: as §1

GLP1R = GLP1R (Homo sapiens, UniProt P43220); test: hGLP1R potency, cAMP accumulation in CHO-K1 cells stably overexpressing hGLP1R; format: cell-based; parameters: host or cells: CHO-K1; details: for Selectivity: SCTR EC50/GLP1R EC50 ratio; for EC50: cAMP accumulation, CHO-K1 cells overexpressing hGLP1R, read-out: pEC50 hGLPR1 (converted)
Chain of GLP1R (P43220 24-463): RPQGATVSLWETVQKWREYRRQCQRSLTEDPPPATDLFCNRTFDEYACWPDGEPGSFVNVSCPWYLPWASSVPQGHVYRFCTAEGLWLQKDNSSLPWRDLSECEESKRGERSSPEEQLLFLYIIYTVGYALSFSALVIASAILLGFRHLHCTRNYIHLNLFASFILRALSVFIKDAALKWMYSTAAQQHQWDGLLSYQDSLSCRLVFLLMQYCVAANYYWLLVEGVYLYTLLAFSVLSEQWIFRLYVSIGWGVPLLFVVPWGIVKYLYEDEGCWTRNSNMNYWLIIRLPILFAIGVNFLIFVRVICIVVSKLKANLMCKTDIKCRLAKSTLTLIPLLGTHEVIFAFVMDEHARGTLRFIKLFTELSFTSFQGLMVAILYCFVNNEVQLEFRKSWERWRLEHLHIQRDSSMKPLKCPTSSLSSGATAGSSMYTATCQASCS
Summary of the method: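 Thawed cells go straight into buffer containing 0.5 mM IBMX and 0.05% casein, get graded compound doses for 30 min at room temperature, and are then assayed for accumulated cAMP by time-resolved FRET. Human GLP-1(7-36) serves as positive control; EC50 is derived by nonlinear regression.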

SCTR = SCTR (Homo sapiens, UniProt P47872); test: hSCTR potency, cAMP accumulation in CHO-K1 cells stably overexpressing hSCTR; format: cell-based; parameters: alternatively Euroscreen ES-712-AF; FAST-0161L; host or cells: CHO-K1; details: cAMP accumulation, CHO-K1 cells overexpressing hSCTR; read-out: pEC50 hSCTR (converted)
Chain of SCTR (P47872 23-440): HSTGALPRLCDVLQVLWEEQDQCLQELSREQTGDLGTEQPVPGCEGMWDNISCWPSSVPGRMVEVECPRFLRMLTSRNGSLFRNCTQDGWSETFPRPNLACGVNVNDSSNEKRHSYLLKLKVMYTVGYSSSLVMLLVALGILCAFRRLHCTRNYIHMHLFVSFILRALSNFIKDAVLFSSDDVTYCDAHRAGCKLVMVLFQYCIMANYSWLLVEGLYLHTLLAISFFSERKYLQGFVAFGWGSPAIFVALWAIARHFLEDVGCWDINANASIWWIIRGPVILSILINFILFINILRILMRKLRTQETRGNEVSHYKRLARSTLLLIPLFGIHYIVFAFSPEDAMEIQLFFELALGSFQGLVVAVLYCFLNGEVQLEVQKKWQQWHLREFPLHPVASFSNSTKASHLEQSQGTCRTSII
Summary of the method: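 Read-out is TR-FRET cAMP detection, recorded one hour after reagent addition, in CHO-K1 cells stably overexpressing hSCTR. Cells in DPBS containing 0.05% casein and 0.5 mM IBMX are exposed to graded peptide doses for 30 min at room temperature, with human secretin as reference agonist.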

Turbidity (pH 7) [1] | Fibril formation [2] | Selectivity (GLP1R) | EC50 (GLP1R) [nM] | EC50 (SCTR) [nM] | SMILES
0.09 | 9625 | 11143 | 0.0316 | 316 | CC(C)C[C@H](NC(=O)[C@H](CCC(=O)O)NC(=O)[C@H](CCCCNC(=O)COCCOCCNC(=O)COCCOCCNC(=O)CC[C@H](NC(=O)CCCCCCCCCCCCCCCCCCC(=O)O)C(=O)O)NC(=O)[C@H](CC(C)C)NC(=O)[C@H](CCC(=O)O)NC(=O)[C@H](CO)NC(=O)[C@@H](NC(=O)[C@H](CC(=O)O)NC(=O)[C@H](CO)NC(=O)[C@@H](NC(=O)[C@H](Cc1ccccc1)NC(=O)[C@@H](NC(=O)CNC(=O)[C@H](CCC(=O)O)NC(=O)C(C)(C)NC(=O)[C@@H](N)Cc1c[nH]cn1)[C@@H](C)O)[C@@H](C)O)C(C)C)C(=O)N[C@@H](C)C(=O)N[C@@H](C)C(=O)N[C@@H](CCC(=O)O)C(=O)N[C@@H](CCC(N)=O)C(=O)N[C@@H](CCCNC(=N)N)C(=O)N[C@@H](Cc1ccccc1)C(=O)N[C@@H](CC(C)C)C(=O)N[C@@H](CCC(=O)O)C(=O)N[C@@H](Cc1c[nH]cn1)C(=O)N[C@@H](CC(C)C)C(=O)N[C@H](C(N)=O)C(C)C [compound 36] (H-H[Aib]EGTFTSDVSELK([AEEA-AEEA-γGlu-C20 diacid])ELAAEQRFLEHLV-NH2)
0.08 | 12367 | 158052 | 0.0126 | 2000 | CC(C)C[C@H](NC(=O)[C@H](Cc1ccccc1)NC(=O)[C@H](CCCNC(=N)N)NC(=O)[C@H](CCC(N)=O)NC(=O)C(C)(C)NC(=O)[C@H](C)NC(=O)[C@H](C)NC(=O)[C@H](CCC(=O)O)NC(=O)[C@H](CCC(=O)O)NC(=O)[C@H](CCCCNC(=O)COCCOCCNC(=O)COCCOCCNC(=O)CC[C@H](NC(=O)CCCCCCCCCCCCCCCCCCC(=O)O)C(=O)O)NC(=O)[C@H](CC(C)C)NC(=O)[C@H](Cc1ccccc1)NC(=O)[C@H](CO)NC(=O)[C@@H](NC(=O)[C@H](CC(=O)O)NC(=O)[C@H](CO)NC(=O)[C@@H](NC(=O)[C@H](Cc1ccccc1)NC(=O)[C@@H](NC(=O)CNC(=O)[C@H](CCC(=O)O)NC(=O)C(C)(C)NC(=O)[C@@H](N)Cc1c[nH]cn1)[C@@H](C)O)[C@@H](C)O)C(C)C)C(=O)N[C@@H](CCC(=O)O)C(=O)N[C@@H](Cc1c[nH]cn1)C(=O)N[C@@H](CC(C)C)C(=O)N[C@H](C(N)=O)C(C)C [compound 37] (H-H[Aib]EGTFTSDVSFLK([AEEA-AEEA-γGlu-C20 diacid])EEAA[Aib]QRFLEHLV-NH2)
0.09 | 38424 | 35785 | 0.0316 | 1000 | CC(C)C[C@H](NC(=O)[C@H](Cc1ccccc1)NC(=O)[C@H](CCCNC(=N)N)NC(=O)[C@H](CCC(N)=O)NC(=O)[C@H](CO)NC(=O)[C@H](C)NC(=O)[C@H](C)NC(=O)[C@H](CCC(=O)O)NC(=O)[C@H](CCC(=O)O)NC(=O)[C@H](CCCCNC(=O)COCCOCCNC(=O)COCCOCCNC(=O)CC[C@H](NC(=O)CCCCCCCCCCCCCCCCCCC(=O)O)C(=O)O)NC(=O)[C@H](CC(C)C)NC(=O)[C@H](Cc1ccccc1)NC(=O)[C@H](CO)NC(=O)[C@@H](NC(=O)[C@H](CC(=O)O)NC(=O)[C@H](CO)NC(=O)[C@@H](NC(=O)[C@H](Cc1ccccc1)NC(=O)[C@@H](NC(=O)CNC(=O)[C@H](CCC(=O)O)NC(=O)C(C)(C)NC(=O)[C@@H](N)Cc1c[nH]cn1)[C@@H](C)O)[C@@H](C)O)C(C)C)C(=O)N[C@@H](CCC(=O)O)C(=O)N[C@@H](Cc1c[nH]cn1)C(=O)N[C@@H](CC(C)C)C(=O)N[C@H](C(N)=O)C(C)C [compound 38] (H-H[Aib]EGTFTSDVSFLK([AEEA-AEEA-γGlu-C20 diacid])EEAASQRFLEHLV-NH2)
0.08 | 9592 | 17346 | 0.0158 | 316 | CC(C)C[C@H](NC(=O)[C@H](Cc1ccccc1)NC(=O)[C@H](CCCNC(=N)N)NC(=O)[C@H](CCC(N)=O)NC(=O)[C@H](CCC(N)=O)NC(=O)[C@H](C)NC(=O)[C@H](C)NC(=O)[C@H](CCC(=O)O)NC(=O)[C@H](CCC(=O)O)NC(=O)[C@H](CCCCNC(=O)COCCOCCNC(=O)COCCOCCNC(=O)CC[C@H](NC(=O)CCCCCCCCCCCCCCCCCCC(=O)O)C(=O)O)NC(=O)[C@H](CC(C)C)NC(=O)[C@@H](NC(=O)[C@H](CO)NC(=O)[C@@H](NC(=O)[C@H](CC(=O)O)NC(=O)[C@H](CO)NC(=O)[C@@H](NC(=O)[C@H](Cc1ccccc1)NC(=O)[C@@H](NC(=O)CNC(=O)[C@H](CCC(=O)O)NC(=O)C(C)(C)NC(=O)[C@@H](N)Cc1c[nH]cn1)[C@@H](C)O)[C@@H](C)O)C(C)C)[C@@H](C)O)C(=O)N[C@@H](CCC(=O)O)C(=O)N[C@@H](Cc1c[nH]cn1)C(=O)N[C@@H](CC(C)C)C(=O)N[C@H](C(N)=O)C(C)C [compound 39] (H-H[Aib]EGTFTSDVSTLK([AEEA-AEEA-γGlu-C20 diacid])EEAAQQRFLEHLV-NH2)
0.08 | 12180 | 21943 | 0.02 | 398 | CC(C)C[C@H](NC(=O)[C@H](Cc1ccccc1)NC(=O)[C@H](CCCNC(=N)N)NC(=O)[C@H](CCC(N)=O)NC(=O)[C@H](CCC(N)=O)NC(=O)[C@H](C)NC(=O)[C@H](C)NC(=O)C(C)(C)NC(=O)[C@H](CCC(=O)O)NC(=O)[C@H](CCCCNC(=O)COCCOCCNC(=O)COCCOCCNC(=O)CC[C@H](NC(=O)CCCCCCCCCCCCCCCCCCC(=O)O)C(=O)O)NC(=O)[C@H](CC(C)C)NC(=O)[C@@H](NC(=O)[C@H](CO)NC(=O)[C@@H](NC(=O)[C@H](CC(=O)O)NC(=O)[C@H](CO)NC(=O)[C@@H](NC(=O)[C@H](Cc1ccccc1)NC(=O)[C@@H](NC(=O)CNC(=O)[C@H](CCC(=O)O)NC(=O)C(C)(C)NC(=O)[C@@H](N)Cc1c[nH]cn1)[C@@H](C)O)[C@@H](C)O)C(C)C)C(C)C)C(=O)N[C@@H](CCC(=O)O)C(=O)N[C@@H](Cc1c[nH]cn1)C(=O)N[C@@H](CC(C)C)C(=O)N[C@H](C(N)=O)C(C)C [compound 40] (H-H[Aib]EGTFTSDVSVLK([AEEA-AEEA-γGlu-C20 diacid])E[Aib]AAQQRFLEHLV-NH2)
0.08 | 109124 | 16199 | 0.00794 | 126 | CC(C)C[C@H](NC(=O)[C@H](Cc1ccccc1)NC(=O)[C@H](CCCNC(=N)N)NC(=O)[C@H](CCC(N)=O)NC(=O)[C@H](CCC(N)=O)NC(=O)[C@H](C)NC(=O)[C@H](C)NC(=O)[C@@H](NC(=O)[C@H](CCC(=O)O)NC(=O)[C@H](CCCCNC(=O)COCCOCCNC(=O)COCCOCCNC(=O)CC[C@H](NC(=O)CCCCCCCCCCCCCCCCCCC(=O)O)C(=O)O)NC(=O)[C@H](CC(C)C)NC(=O)[C@@H](NC(=O)[C@H](CO)NC(=O)[C@@H](NC(=O)[C@H](CC(=O)O)NC(=O)[C@H](CO)NC(=O)[C@@H](NC(=O)[C@H](Cc1ccccc1)NC(=O)[C@@H](NC(=O)CNC(=O)[C@H](CCC(=O)O)NC(=O)C(C)(C)NC(=O)[C@@H](N)Cc1c[nH]cn1)[C@@H](C)O)[C@@H](C)O)C(C)C)C(C)C)[C@@H](C)O)C(=O)N[C@@H](CCC(=O)O)C(=O)N[C@@H](Cc1c[nH]cn1)C(=O)N[C@@H](CC(C)C)C(=O)N[C@H](C(N)=O)C(C)C [compound 41] (H-H[Aib]EGTFTSDVSVLK([AEEA-AEEA-γGlu-C20 diacid])ETAAQQRFLEHLV-NH2)
0.08 | 6253 | 209363 | 0.0158 | 3160 | CC(C)C[C@H](NC(=O)[C@H](Cc1ccccc1)NC(=O)[C@H](CCCNC(=N)N)NC(=O)[C@H](CCC(N)=O)NC(=O)[C@H](CCC(=O)O)NC(=O)[C@H](C)NC(=O)[C@H](C)NC(=O)[C@@H](NC(=O)[C@H](CCC(=O)O)NC(=O)[C@H](CCCCNC(=O)COCCOCCNC(=O)COCCOCCNC(=O)CC[C@H](NC(=O)CCCCCCCCCCCCCCCCCCC(=O)O)C(=O)O)NC(=O)[C@H](CC(C)C)NC(=O)[C@@H](NC(=O)[C@H](CO)NC(=O)[C@@H](NC(=O)[C@H](CC(=O)O)NC(=O)[C@H](CO)NC(=O)[C@@H](NC(=O)[C@H](Cc1ccccc1)NC(=O)[C@@H](NC(=O)CNC(=O)[C@H](CCC(=O)O)NC(=O)C(C)(C)NC(=O)[C@@H](N)Cc1c[nH]cn1)[C@@H](C)O)[C@@H](C)O)C(C)C)[C@@H](C)O)[C@@H](C)O)C(=O)N[C@@H](CCC(=O)O)C(=O)N[C@@H](Cc1c[nH]cn1)C(=O)N[C@@H](CC(C)C)C(=O)N[C@H](C(N)=O)C(C)C [compound 42] (H-H[Aib]EGTFTSDVSTLK([AEEA-AEEA-γGlu-C20 diacid])ETAAEQRFLEHLV-NH2)
